Experiments:
[1] = system: AAD-12 (v1) pDAB4101 corn events (4101(0)003.R.003.AF and 4101(0)005.R001.AF); assay: Field tolerance of corn: visual injury and brace root injury, AAD-12 events; format: in vivo, Zea mays; conditions: for % Visual Injury 14DAT / Brace Root Injury Rating (0-10 scale) 28DAT: 840 g ae/ha
Method: Seeds were planted with cone planter on 40-inch row spacing at Wayside and 30 inch spacing at Fowler. […] Herbicide treatments were 2,4-D (dimethylamine salt) at 1120, 2240 and 4480 g ae/ha, triclopyr at 840 g ae/ha, fluroxypyr at 280 g ae/ha and an untreated control. The AAD-12 (v1) events contained the AHAS gene as a selectable marker. The F2 corn events were segregating so the AAD-12 (v1) plants were treated with imazethapyr at 70 g ae/ha to remove the null plants. Herbicide treatments were applied when corn reached the V6 stage using compressed air backpack sprayer delivering 187 L/ha carrier volume at 130-200 kpa pressure. […]

[2] = system: wildtype KY160 tobacco; assay: Cross tolerance test, wildtype tobacco; format: in vivo, Nicotiana tabacum
From the text: Two to four T0 individuals surviving high rates of 2,4-D and fluroxypyr were saved from each event and allowed to self fertilize in the greenhouse to give rise to T1 seed. The T1 seed was stratified, and sown into selection trays much like that of Arabidopsis (Example 7.4), followed by selective removal of untransformed nulls in this segregating population with 560 g ai/ha glufosinate (PAT gene selection). Survivors were transferred to individual 3-inch pots in the greenhouse. These lines provided high levels of resistance to 2,4-D in the T0 generation. Improved consistency of response is anticipated in T1 plants not having come directly from tissue culture. These plants were compared against wildtype KY160 tobacco. All plants were sprayed with a track sprayer set at 187 L/ha. The plants were sprayed from a range of 140-2240 g ac/ha 2,4-D dimethylamine salt (DMA), 70-1120 g ace/ha triclopyr or 35-560 g ae/ha fluroxypyr. All applications were formulated in water. Each treatment was replicated 2-4 times. Plants were evaluated at 3 and 14 days after treatment. Plants were assigned injury rating with respect to stunting, chlorosis, and necrosis. The T1 generation is segregating, so some variable response is expected due to difference in zygosity.

[3] = system: wild-type canola (Nex710); assay: Field tolerance of canola, wild-type; format: in vivo, Brassica napus
Method: Field level tolerance trial was conducted on two AAD-12 (v1) events 3759(20)018.001 and 3759(18)030.001 and a wild-type canola (Nex710) in Fowler, Ind. The experimental design was a randomized complete block design with 3 replications. Herbicide treatments were 2,4-D (dimethylamine salt) at 280, 560, 1120, 2240 and 4480 g ac/ha, triclopyr at 840 g ae/ha, fluroxypyr at 280 g ae/ha and an untreated control. Within each herbicide treatment, single 20 ft row/event for event 3759(18)030.0011, 3759(18)018.001 and wild-type line (Nex710) were planted with a 4 row drill on 8 inch row spacing. Herbicide treatments were applied when canola reached the 4-6 leaf stage using compressed air backpack sprayer delivering 187 L/ha carrier volume at 130-200 kpa pressure. Visual injury ratings were taken at 7, 14 and 21 days after application.

[4] = system: Roundup Ready (RR) control corn hybrid (2P782); assay: Field tolerance of corn: visual injury and brace root injury, control hybrid; format: in vivo, Zea mays
Method: Seeds were planted with cone planter on 40-inch row spacing at Wayside and 30 inch spacing at Fowler. […] Herbicide treatments were 2,4-D (dimethylamine salt) at 1120, 2240 and 4480 g ae/ha, triclopyr at 840 g ae/ha, fluroxypyr at 280 g ae/ha and an untreated control. The AAD-12 (v1) events contained the AHAS gene as a selectable marker. The F2 corn events were segregating so the AAD-12 (v1) plants were treated with imazethapyr at 70 g ae/ha to remove the null plants. Herbicide treatments were applied when corn reached the V6 stage using compressed air backpack sprayer delivering 187 L/ha carrier volume at 130-200 kpa pressure. Visual injury ratings were taken at 7, 14 and 21 days after treatment.

[5] = system: AAD-12 (v1) tobacco lines (pDAS1580-[1]-018.001, pDAS1580-[1]-004.001, pDAS1580-[1]-020.016); assay: Field tolerance of tobacco, AAD-12 lines; format: in vivo, Nicotiana tabacum
Method: Field level tolerance trials were conducted on three AAD-12 (v1) lines (events pDAS1580-[1]-018.001, pDAS1580-[1]-004.001 and pDAS1580-[1]-020.016) and one wild-type line (KY160) at field stations in Indiana and Mississippi. Tobacco transplants were grown in the greenhouse by planting T1 seed in 72 well transplant flats (Hummert International) containing Metro 360 media according to growing conditions indicated above. The null plants were selectively removed by Liberty selection as previously described. The transplant plants were transported to the field stations and planted at either 14 or 24 inches apart using industrial vegetable planters. Drip irrigation at the Mississippi site and overhead irrigation at the Indiana site were used to keep plants growing vigorously.
The experimental design was a split plot design with 4 replications. The main plot was herbicide treatment and the sub-plot was tobacco line. The herbicide treatments were 2,4-D (dimethylamine salt) at 280, 560, 1120, 2240 and 4480 g ac/ha, triclopyr at 840 g ae/ha, fluroxypyr at 280 g ac/ha and an untreated control. Plots were one row by 25-30 ft. Herbicide treatments were applied 3-4 weeks after transplanting using compressed air backpack sprayer delivering 187 L/ha carrier volume at 130-200 kpa pressure. Visual rating of injury, growth inhibition, and epinasty were taken at 7, 14 and 21 days after treatment.

[6] = 2× rate of triclopyr (840 g ae/ha), 14 DAT

Compound: O=C(O)COc1nc(Cl)c(Cl)cc1Cl [triclopyr]
- visual injury, average across the two events [1, 6]: 3%
- % Visual Injury 14DAT ([1]; AAD-12 4101(0)003.R.003.AF): 3%
- % Visual Injury 14DAT ([1]; AAD-12 4101(0)005.001.AF): 4%
- Brace Root Injury Rating (0-10 scale) 28DAT ([1]; AAD-12 event 4101(0)003.R.003.AF): 0
- Brace Root Injury Rating (0-10 scale) 28DAT ([1]; AAD-12 event 4101(0)005.001.AF): 0
- brace root injury ([1]; Triclopyr at 840 g ae/ha): no brace root injury
- Average % Injury of Replicates 14 DAT ([2]; 70 g ae/ha): 40%
- Average % Injury of Replicates 14 DAT ([2]; 280 g ae/ha): 65%
- Average % Injury of Replicates 14 DAT ([2]; 1120 g ae/ha): 80%
- visual injury [3, 6]: 25%
- % Visual Injury at 14 DAT ([3]; Wild Type (Nex710), 840 GM AE/HA): 25 cd %
- % Visual Injury 14DAT ([4]; 2P782 control, 840 g ae/ha): 31%
- visual injury [4, 6]: 31%
- average brace root injury score (0-10 scale) ([4]; Triclopyr at 840 g ae/ha, 28DAT): 7
- Brace Root Injury Rating (0-10 scale) 28DAT ([4]; Wild-type NK603, 840 g ae/ha): 7
- average injury across the three lines [5, 6]: 5%
- Average % Injury across locations at 14 DAT ([5]; pDAS1580-[1]-004.001, 840 GM AE/HA): 5%
- Average % Injury across locations at 14 DAT ([5]; pDAS1580-[1]-018.001, 840 GM AE/HA): 4%
- Average % Injury across locations at 14 DAT ([5]; pDAS1580-[1]-020.016, 840 GM AE/HA): 5%

Source: patent US11371055B2, “Herbicide resistance genes” (CORTEVA AGRISCIENCE LLC, priority 2005, dated 2022)
